Assay results as given in paper PMC5380659, “Unique charge-dependent constraint on collagen recognition by integrin α10β1” (Matrix Biology, 2017).
Entries after “also recorded” stand apart in the source; their conditions may differ.

How the values were obtained:
[1] = test system: human recombinant GST-α10 I domain; test: Solid-phase binding assay (SPBA) of wild-type α10 I domain; settings: short THPs, 2 mM Mg^2 +, 1 h, Fig. 4A
Experimental: The α10 I domain was applied to the collagen II and III Toolkits in the presence or absence of Mg^2 +, and was detected using anti-GST, as described in Experimental: data are shown in Fig. 1. The background response is indicated by wells coated with the control peptide, GPP10 (corresponding to the host sequence), or BSA.
(§1) I domain adhesion was determined colorimetrically, as described, here termed solid phase binding assay (SPBA). Peptides were coated at 10 μg/ml for 1 h at 22 °C on Immulon-2 HB 96-well plates (Thermo Life Sciences, Basingstoke, UK), and blocked for 1 h with 200 μl of TBS containing 50 mg/ml bovine serum albumin. Wells were washed four times with 200 μl of the adhesion buffer (TBS with 1 mg/ml bovine serum albumin) before adding 100 μl of adhesion buffer containing 10 μg/ml of recombinant GST I domains in the presence of either 2 mM MgCl2 or EDTA for 1 h at room temperature. Wells were washed five times with 200 μl of adhesion buffer containing MgCl2 or EDTA, before adding 100 μl of adhesion buffer containing the anti-GST-HRP conjugate at 1:10,000 dilution for 1 h at room temperature. After washing, colour was developed using an ImmunoPure TMB Substrate Kit (Pierce) according to the manufacturer's instructions.

[2] = test system: collagen-binding integrins; parameters: method as in 3 sources, ref [7], [8] = [7]; PMID 10778855; doi:10.1016/S0092-8674(00)80622-4; 7 Emsley J. Knight C.G. Farndale R.W. Barnes M.J. Liddington R.C. Structural basis of collagen recognition by integrin alpha2beta1 Cell 101 1 2000 47 56 10778855 10.1016/S0092-8674(00)80622-4 || [8]; PMID 16326707; doi:10.1074/jbc.M509818200; 8 Raynal N. Hamaia S.W. Siljander P.R. Maddox B. Peachey A.R. Fernandez R. Foley L.J. Slatter D.A. Jarvis G.E. Farndale R.W. Use of synthetic peptides to locate novel integrin alpha2beta1-binding moti ||| ref [8], [10] = [8]; PMID 16326707; doi:10.1074/jbc.M509818200; 8 Raynal N. Hamaia S.W. Siljander P.R. Maddox B. Peachey A.R. Fernandez R. Foley L.J. Slatter D.A. Jarvis G.E. Farndale R.W. Use of synthetic peptides to locate novel integrin alpha2beta1-binding moti || [10]; PMID 16043429; doi:10.1074/jbc.M502431200; 10 Kim J.K. Xu Y. Xu X. Keene D.R. Gurusiddappa S. Liang X. Wary K.K. Hook M. A novel binding site in collagen type III for the integrins, alpha 1beta 1 and alpha 2beta 1 J. Biol. Chem. 280 2005 32512 ||| ref [11] = [11]; PMID 10986291; doi:10.1074/jbc.M007668200; 11 Xu Y. Gurusiddappa S. Rich R.L. Owens R.T. Keene D.R. Mayne R. Hook A. Hook M. Multiple binding sites in collagen type I for the integrins α1β1 and α2β1 J. Biol. Chem. 275 2000 38981 38989 10986291; settings: cited from earlier work
Description: Many related motifs have now been identified using the Collagen Toolkits developed in this laboratory for the purpose. These are libraries of overlapping peptides of 27 amino acids of collagen primary sequence (guest sequence), flanked ...

α10β1 = test: Overall recognition by α10β1 (I domain and C2C12-α10β1 cells, summary); settings: abstract and discussion; I domain and/or C2C12-α10β1 cells
Experimental: as §1
The mouse myoblast cell line, C2C12, (control and transfectants, C2C12-α1β1, C2C12-α2β1, C2C12-α10β1 or C2C12-α11β1) was maintained in RPMI medium containing 10% fetal bovine serum, 2 mM glutamine, 100 IU/ml penicillin, 100 μg/ml streptomycin, and 2.5 μg/ml amphotericin. Cells were harvested by centrifugation, washed, and suspended at 0.5 × 10^6/ml in Tris-buffered saline supplemented with 5.5 mM glucose and either 2 mM EDTA or 2 mM MgCl2. SPBA was performed as follows: 100 μl of the cell suspension was added to peptide-coated wells [42] at 20 °C for 60 min. Cell adhesion was determined colorimetrically after lysis, using a lactate dehydrogenase (LDH)-based cell detection kit (Roche Diagnostics) according to the supplier's instructions.
To quantitate C2C12-α10β1 binding to collagen peptides, we used the impedance-based xCELLigence system (Acea) that allows label-free, dynamic monitoring of cell adhesion in real-time. The assay system expresses the adhesion-dependent rise in well impedance in units of cell index (CI), defined as (Rn − Rb) / 15; where Rn is the electrical impedance of each cell-containing well and Rb is the background impedance of the well with medium alone

C2C12-α2β1 cells = test: xCELLigence real-time adhesion of C2C12-α2β1 cells; format: cell-based, mouse; settings: up to 1 h, compared to GFOGER, Fig. 6B

| Substance | Binding of α10 I domain to short triple-helical peptides [1] | Ligand of collagen-binding integrins, highest affinity motif ([2]; in collagens I and II, ref [7], [8]) | Recognition by α10β1, summary (α10β1) | Adhesion of C2C12-α2β1 cells to short THP (time course) (C2C12-α2β1 cells) | Ligand of collagen-binding integrins, GROGER ([2]; ref [8], [10]) |
| --- | --- | --- | --- | --- | --- |
| GFOGER [THP containing GFOGER served as positive control, reference compound] | less well | highest affinity ligand | – | – | – |
| GLOGEN [short THP containing GLOGEN] | bound strongly | – | selective ligand in preference to GFOGER; also recorded: high-affinity site | – | – |
| GROGER [short triple-helical peptide containing GROGER] | – | – | only weakly recognised by α10β1; also recorded: compromised in the context of α10β1; also recorded: α10-repellent | bound quite well | quite a good ligand |
